Measured values: article doi:10.1101/2024.08.13.607785v1 (biorxiv, 2024)
Like-named read-outs stand apart in the source and are kept apart here. Each block holds one compound with its values, some of them ahead of it.

Tests used:
Assay in all cases: biochemical
Set-up in all cases: species or system human cell line lysate
[1] = target: 5'-AMP-activated protein kinase catalytic subunit alpha-2 ; PRKAA2 ; P54646 (Homo sapiens, UniProt P54646)
[2] = target: Tyrosine-protein kinase Lyn ; LYN ; P07948 (Homo sapiens, UniProt P07948)
[3] = target: Isoform 2 of 5'-AMP-activated protein kinase catalytic subunit alpha-1 ; PRKAA1 ; Q13131-2 (Homo sapiens, UniProt Q13131)
[4] = target: Mitogen-activated protein kinase kinase kinase kinase 2 ; MAP4K2 ; Q12851 (Homo sapiens, UniProt Q12851)
[5] = target: Serine/threonine-protein kinase PAK 5 ; PAK5 ; Q9P286 (Homo sapiens, UniProt Q9P286)
[6] = target: Tyrosine-protein kinase Fgr ; FGR ; P09769 (Homo sapiens, UniProt P09769)
[7] = target: Ketosamine-3-kinase ; FN3KRP ; Q9HA64 (Homo sapiens, UniProt Q9HA64)
[8] = target: MAP kinase-activated protein kinase 2 ; MAPKAPK2 ; P49137 (Homo sapiens, UniProt P49137)
[9] = target: Serine/threonine-protein kinase pim-1 ; PIM1 ; P11309 (Homo sapiens, UniProt P11309)
[10] = target: Aurora kinase A ; AURKA ; O14965 (Homo sapiens, UniProt O14965)
[11] = target: Isoform Beta of cGMP-dependent protein kinase 1 ; PRKG1 ; Q13976-2 (Homo sapiens, UniProt Q13976)
[12] = target: Serine/threonine-protein kinase PDIK1L ; PDIK1L ; Q8N165 (Homo sapiens, UniProt Q8N165)
[13] = target: Isoform 3 of Membrane-associated tyrosine- and threonine-specific cdc2 ; PKMYT1 ; Q99640-3 (Homo sapiens, UniProt Q99640)
[14] = target: Serine/threonine-protein kinase pim-2 ; PIM2 ; Q9P1W9 (Homo sapiens, UniProt Q9P1W9)
[15] = target: Serine/threonine-protein kinase TAO3 ; TAOK3 ; Q9H2K8 (Homo sapiens, UniProt Q9H2K8)
[16] = target: Isoform 6 of Calcium/calmodulin-dependent protein kinase type II subun ; CAMK2G ; Q13555-6 (Homo sapiens, UniProt Q13555)
[17] = target: Phosphorylase b kinase gamma catalytic chain, liver/testis isoform ; PHKG2 ; P15735 (Homo sapiens, UniProt P15735)
[18] = target: cAMP-dependent protein kinase catalytic subunit PRKX ; PRKX ; P51817 (Homo sapiens, UniProt P51817)
[19] = target: Isoform 2 of Mitogen-activated protein kinase kinase kinase 20 ; MAP3K20 ; Q9NYL2-2 (Homo sapiens, UniProt Q9NYL2)
[20] = target: Serine/threonine-protein kinase ULK2 ; ULK2 ; Q8IYT8 (Homo sapiens, UniProt Q8IYT8)
[21] = target: Serine/threonine-protein kinase RIO1 ; RIOK1 ; Q9BRS2 (Homo sapiens, UniProt Q9BRS2)
[22] = target: Serine/threonine-protein kinase Chk2 ; CHEK2 ; O96017 (Homo sapiens, UniProt O96017)
[23] = read-out: BAY-1143572 (10 µM) / %Intensity relative to DMSO
[24] = read-out: BAY-1251152 (10 µM) / %Intensity relative to DMSO

Sequence of Phosphorylase b kinase gamma catalytic chain, liver/testis isoform ; PHKG2 ; P15735 (P15735 whole entry, canonical isoform, one chain of several): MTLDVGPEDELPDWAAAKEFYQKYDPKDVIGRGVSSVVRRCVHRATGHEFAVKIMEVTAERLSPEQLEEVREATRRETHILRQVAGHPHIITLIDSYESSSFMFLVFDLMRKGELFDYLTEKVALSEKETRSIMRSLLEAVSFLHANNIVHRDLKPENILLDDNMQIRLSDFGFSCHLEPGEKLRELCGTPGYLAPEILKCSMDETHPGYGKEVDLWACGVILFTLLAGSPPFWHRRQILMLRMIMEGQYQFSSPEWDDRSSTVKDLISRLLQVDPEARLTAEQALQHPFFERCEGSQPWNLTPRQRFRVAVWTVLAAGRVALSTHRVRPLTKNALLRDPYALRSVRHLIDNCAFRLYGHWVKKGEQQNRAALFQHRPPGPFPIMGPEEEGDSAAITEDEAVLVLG
Sequence of Mitogen-activated protein kinase kinase kinase kinase 2 ; MAP4K2 ; Q12851 (Q12851 whole entry): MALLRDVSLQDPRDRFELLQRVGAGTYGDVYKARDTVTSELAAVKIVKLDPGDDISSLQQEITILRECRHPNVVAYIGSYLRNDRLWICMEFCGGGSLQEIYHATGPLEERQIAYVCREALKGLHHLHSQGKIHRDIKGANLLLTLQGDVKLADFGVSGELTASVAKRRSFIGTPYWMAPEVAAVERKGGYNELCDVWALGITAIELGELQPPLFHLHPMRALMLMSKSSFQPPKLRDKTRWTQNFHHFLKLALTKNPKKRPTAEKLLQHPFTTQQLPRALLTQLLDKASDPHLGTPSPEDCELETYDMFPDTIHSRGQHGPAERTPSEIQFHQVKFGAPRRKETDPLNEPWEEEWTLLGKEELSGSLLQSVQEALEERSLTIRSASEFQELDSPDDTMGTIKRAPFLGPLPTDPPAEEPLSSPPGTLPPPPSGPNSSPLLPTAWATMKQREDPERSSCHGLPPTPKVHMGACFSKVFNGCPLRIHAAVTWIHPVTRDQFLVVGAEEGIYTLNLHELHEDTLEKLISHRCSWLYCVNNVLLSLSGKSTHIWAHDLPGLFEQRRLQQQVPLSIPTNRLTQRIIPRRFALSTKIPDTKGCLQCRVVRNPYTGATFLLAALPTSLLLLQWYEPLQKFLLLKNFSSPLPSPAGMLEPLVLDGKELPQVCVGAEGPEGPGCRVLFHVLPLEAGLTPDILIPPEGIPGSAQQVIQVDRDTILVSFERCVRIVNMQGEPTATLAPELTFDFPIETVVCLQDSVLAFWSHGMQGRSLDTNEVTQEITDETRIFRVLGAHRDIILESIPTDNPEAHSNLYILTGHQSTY
Sequence of cAMP-dependent protein kinase catalytic subunit PRKX ; PRKX ; P51817 (P51817 whole entry, canonical isoform, one chain of several): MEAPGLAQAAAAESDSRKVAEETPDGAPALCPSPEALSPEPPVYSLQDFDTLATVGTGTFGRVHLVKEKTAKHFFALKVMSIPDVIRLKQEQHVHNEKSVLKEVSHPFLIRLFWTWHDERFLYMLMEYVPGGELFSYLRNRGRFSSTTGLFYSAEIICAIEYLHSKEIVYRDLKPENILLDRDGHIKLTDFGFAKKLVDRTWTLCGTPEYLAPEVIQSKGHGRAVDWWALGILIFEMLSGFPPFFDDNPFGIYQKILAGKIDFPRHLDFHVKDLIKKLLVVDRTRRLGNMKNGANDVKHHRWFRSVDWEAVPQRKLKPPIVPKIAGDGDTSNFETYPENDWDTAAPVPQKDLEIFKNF
Sequence of Isoform 2 of Mitogen-activated protein kinase kinase kinase 20 ; MAP3K20 ; Q9NYL2-2 (Q9NYL2 whole entry, canonical isoform): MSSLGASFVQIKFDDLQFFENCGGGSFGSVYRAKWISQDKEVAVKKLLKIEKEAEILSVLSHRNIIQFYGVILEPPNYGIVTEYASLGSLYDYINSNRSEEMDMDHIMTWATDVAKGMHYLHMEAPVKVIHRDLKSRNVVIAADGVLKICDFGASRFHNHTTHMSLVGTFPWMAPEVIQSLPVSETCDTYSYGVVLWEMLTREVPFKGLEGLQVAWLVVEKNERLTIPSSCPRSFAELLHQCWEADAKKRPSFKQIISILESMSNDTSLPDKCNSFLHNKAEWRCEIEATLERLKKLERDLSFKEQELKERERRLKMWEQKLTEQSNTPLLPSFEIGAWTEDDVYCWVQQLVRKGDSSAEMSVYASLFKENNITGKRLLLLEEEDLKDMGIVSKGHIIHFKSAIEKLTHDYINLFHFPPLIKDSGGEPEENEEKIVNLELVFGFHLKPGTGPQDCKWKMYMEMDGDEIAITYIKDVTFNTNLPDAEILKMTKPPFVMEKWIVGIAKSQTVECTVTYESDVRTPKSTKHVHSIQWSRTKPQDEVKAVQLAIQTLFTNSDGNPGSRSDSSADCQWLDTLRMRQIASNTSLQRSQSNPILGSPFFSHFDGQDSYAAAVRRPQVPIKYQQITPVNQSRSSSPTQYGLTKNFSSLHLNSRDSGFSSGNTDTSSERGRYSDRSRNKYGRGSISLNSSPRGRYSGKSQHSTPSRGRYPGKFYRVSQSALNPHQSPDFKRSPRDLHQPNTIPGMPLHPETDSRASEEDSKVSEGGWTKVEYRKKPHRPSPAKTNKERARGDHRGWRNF
Sequence of Tyrosine-protein kinase Fgr ; FGR ; P09769 (P09769 whole entry): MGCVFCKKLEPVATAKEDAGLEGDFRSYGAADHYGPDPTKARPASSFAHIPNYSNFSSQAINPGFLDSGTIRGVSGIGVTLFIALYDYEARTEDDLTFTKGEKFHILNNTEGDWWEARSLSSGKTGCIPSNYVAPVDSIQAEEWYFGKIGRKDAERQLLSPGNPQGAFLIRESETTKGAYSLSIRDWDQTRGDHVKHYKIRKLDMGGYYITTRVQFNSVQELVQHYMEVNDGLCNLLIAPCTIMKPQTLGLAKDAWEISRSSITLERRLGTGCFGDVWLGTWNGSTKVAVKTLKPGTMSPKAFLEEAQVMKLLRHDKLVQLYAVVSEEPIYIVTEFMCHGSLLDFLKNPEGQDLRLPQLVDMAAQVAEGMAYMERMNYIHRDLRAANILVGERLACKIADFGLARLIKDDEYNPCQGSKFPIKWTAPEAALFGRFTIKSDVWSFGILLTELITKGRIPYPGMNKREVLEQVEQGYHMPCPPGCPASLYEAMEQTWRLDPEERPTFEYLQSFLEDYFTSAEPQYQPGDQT
Sequence of MAP kinase-activated protein kinase 2 ; MAPKAPK2 ; P49137 (P49137 whole entry): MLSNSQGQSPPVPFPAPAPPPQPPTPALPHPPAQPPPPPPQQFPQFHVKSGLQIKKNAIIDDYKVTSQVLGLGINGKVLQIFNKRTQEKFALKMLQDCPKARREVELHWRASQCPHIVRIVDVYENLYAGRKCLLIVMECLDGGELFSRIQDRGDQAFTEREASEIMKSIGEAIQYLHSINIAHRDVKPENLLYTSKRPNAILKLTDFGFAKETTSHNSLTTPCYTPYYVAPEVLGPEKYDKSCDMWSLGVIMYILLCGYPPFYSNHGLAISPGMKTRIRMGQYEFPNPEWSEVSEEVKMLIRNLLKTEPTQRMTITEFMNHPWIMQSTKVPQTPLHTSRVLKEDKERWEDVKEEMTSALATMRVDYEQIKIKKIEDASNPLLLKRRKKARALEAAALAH
Sequence of Serine/threonine-protein kinase RIO1 ; RIOK1 ; Q9BRS2 (Q9BRS2 whole entry, one chain of several): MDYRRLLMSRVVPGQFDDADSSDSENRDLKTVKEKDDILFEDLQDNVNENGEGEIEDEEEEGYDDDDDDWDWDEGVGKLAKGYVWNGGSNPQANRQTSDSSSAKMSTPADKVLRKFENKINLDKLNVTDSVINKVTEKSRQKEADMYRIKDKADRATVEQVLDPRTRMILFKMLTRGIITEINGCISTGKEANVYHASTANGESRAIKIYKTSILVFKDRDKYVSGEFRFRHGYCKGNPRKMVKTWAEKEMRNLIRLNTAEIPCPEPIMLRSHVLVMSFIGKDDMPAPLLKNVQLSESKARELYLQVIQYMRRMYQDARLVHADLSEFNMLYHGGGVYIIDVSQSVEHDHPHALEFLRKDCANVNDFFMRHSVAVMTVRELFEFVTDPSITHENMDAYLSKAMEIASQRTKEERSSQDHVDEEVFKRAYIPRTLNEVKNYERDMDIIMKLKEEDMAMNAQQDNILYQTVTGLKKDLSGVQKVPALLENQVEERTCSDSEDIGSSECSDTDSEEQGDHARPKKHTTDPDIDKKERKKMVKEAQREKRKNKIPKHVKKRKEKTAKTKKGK
Sequence of Serine/threonine-protein kinase ULK2 ; ULK2 ; Q8IYT8 (Q8IYT8 whole entry, one chain of several): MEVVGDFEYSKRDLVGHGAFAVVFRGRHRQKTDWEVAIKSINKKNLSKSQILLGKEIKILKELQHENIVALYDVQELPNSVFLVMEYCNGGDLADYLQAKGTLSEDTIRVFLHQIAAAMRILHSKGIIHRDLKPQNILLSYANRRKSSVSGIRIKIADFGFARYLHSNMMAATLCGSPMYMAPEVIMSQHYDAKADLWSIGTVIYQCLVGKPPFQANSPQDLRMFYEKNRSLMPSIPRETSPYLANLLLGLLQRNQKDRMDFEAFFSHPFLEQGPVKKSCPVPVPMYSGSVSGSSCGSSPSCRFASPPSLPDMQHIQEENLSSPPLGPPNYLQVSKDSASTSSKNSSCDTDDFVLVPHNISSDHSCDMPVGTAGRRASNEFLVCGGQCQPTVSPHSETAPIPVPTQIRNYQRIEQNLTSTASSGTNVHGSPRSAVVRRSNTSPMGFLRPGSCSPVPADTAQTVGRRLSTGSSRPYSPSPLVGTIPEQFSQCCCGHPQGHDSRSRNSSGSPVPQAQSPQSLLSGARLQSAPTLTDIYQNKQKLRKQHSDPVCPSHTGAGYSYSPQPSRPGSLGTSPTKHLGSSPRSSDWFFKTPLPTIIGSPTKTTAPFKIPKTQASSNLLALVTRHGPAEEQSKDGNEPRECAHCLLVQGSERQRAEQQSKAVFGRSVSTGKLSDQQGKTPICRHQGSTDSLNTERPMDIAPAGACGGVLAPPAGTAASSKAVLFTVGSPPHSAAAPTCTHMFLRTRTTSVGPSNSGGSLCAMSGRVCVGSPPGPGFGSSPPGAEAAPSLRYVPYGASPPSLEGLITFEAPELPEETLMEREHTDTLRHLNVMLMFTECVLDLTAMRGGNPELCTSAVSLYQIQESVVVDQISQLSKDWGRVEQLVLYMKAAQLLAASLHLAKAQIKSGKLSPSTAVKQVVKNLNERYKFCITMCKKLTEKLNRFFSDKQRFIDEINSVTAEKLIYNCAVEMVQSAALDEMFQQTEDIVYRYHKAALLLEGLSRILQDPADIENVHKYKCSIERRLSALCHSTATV

remaining activity at 10 µM [1, 23]: 115%
remaining activity at 10 µM [2, 23]: 82%
remaining activity at 10 µM [3, 23]: 99.5%
remaining activity at 10 µM [4, 23]: 106%
remaining activity at 10 µM [5, 23]: 138%
remaining activity at 10 µM [6, 23]: 96.5%
remaining activity at 10 µM [7, 23]: 117%
remaining activity at 10 µM [8, 23]: 128%
remaining activity at 10 µM [9, 23]: 124%
remaining activity at 10 µM [10, 23]: 112%
remaining activity at 10 µM [11, 23]: 130%
remaining activity at 10 µM [12, 23]: 119%
remaining activity at 10 µM [13, 23]: 117%
remaining activity at 10 µM [14, 23]: 132%
remaining activity at 10 µM [15, 23]: 111%
remaining activity at 10 µM [16, 23]: 105%
remaining activity at 10 µM [17, 23]: 107%
remaining activity at 10 µM [18, 23]: 152%
remaining activity at 10 µM [19, 23]: 65.2%
remaining activity at 10 µM [20, 23]: 92.9%
remaining activity at 10 µM [21, 23]: 106%
remaining activity at 10 µM [22, 23]: 116%
SMILES: COc1cc(F)ccc1-c1ncnc(Nc2cccc(C[S@](C)(=N)=O)c2)n1 [BAY-1143572]

remaining activity at 10 µM [1, 24]: 113%
remaining activity at 10 µM [2, 24]: 79.4%
remaining activity at 10 µM [3, 24]: 103%
remaining activity at 10 µM [4, 24]: 73.8%
remaining activity at 10 µM [5, 24]: 143%
remaining activity at 10 µM [6, 24]: 97.1%
remaining activity at 10 µM [7, 24]: 114%
remaining activity at 10 µM [8, 24]: 119%
remaining activity at 10 µM [9, 24]: 110%
remaining activity at 10 µM [10, 24]: 98.6%
remaining activity at 10 µM [11, 24]: 117%
remaining activity at 10 µM [12, 24]: 129%
remaining activity at 10 µM [13, 24]: 107%
remaining activity at 10 µM [14, 24]: 102%
remaining activity at 10 µM [15, 24]: 84%
remaining activity at 10 µM [16, 24]: 94.9%
remaining activity at 10 µM [17, 24]: 100%
remaining activity at 10 µM [18, 24]: 140%
remaining activity at 10 µM [19, 24]: 81.6%
remaining activity at 10 µM [20, 24]: 104%
remaining activity at 10 µM [21, 24]: 96.7%
remaining activity at 10 µM [22, 24]: 106%
SMILES: COc1cc(F)ccc1-c1cc(Nc2cc(CS(C)(=N)=O)ccn2)ncc1F (centres unmarked) [BAY-1251152]
